Patent US20240398811A1, “PRC2 INHIBITORS FOR USE IN TREATING BLOOD DISORDERS” (ORIC Pharmaceuticals, Inc., priority 2021, published 2024)

What follows are compounds tested on bone marrow derived CD34+ cells differentiated into erythroid progenitor cells (assay: Percentage of F cells (fetal hemoglobin containing cells) by flow cytometry in differentiated CD34+ cells). Conditions: Donor A, 20 μM, 7-day treatment, vs vehicle.
Assay type: cell-based, human
Text: (§1) Cell Culture and differentiation protocol. Human bone marrow derived CD34+ cells from healthy donors were purchased from StemCell (#70002.2). The CD34+ cells were differentiated using the STEMdiff™ Erythroid kit (StemCell #100-0074) according to manufacturer's instructions. The CD34+ cells were differentiated for 14 days, and the differentiation medium consisted of StemSpan™ SFEM II media and 10% of STEMdiff™ Erythroid Supplement E2 (10×). The CD34+ cells were thawed and plated in a 12-well plate (Corning #3512) at a density of 40,000 cells/well in 1 mL of differentiation media. 100 μL of STEMdiff™ Erythroid Supplement E2 (10×) was added to each well on Day 2, 4, 9 and 11 during differentiation. On day 7, cells were passaged and replated at a density of 167,000 cells/well in a 12-well plate. Flow cytometry was performed every 7 days to assess the stages of differentiation using anti-human CD71 and anti-human glycophorin A (CD235a) antibody (StemCell #60106AZ; #60152FI).
(§2) Treatment of differentiated CD34+ cells with compound Example 32 or hydroxyurea (HU). After 14 days of differentiation, cells were plated in a 12-well plate at a density of 150,000 cells/well in 1 mL differentiation media in quadruplets. The next day, cells were treated with vehicle, 7 concentrations of compound Example 32 in concentrations ranging from 15.625 nM to 1 μM ([…] serial dilution) and 20 μM of HU. 100 μL of STEMdiff™ Erythroid Supplement E2 (10×) was added to each well on Day 2 and 4. Cells were treated with vehicle, compound Example 32, or HU for 7 days and were then harvested for RT-qPCR and flow cytometry.
Flow Cytometry. The cell pellets harvested for flow cytometry analysis were collected in a V-shaped 96-well polypropylene plate (ThermoFisher #249944). The cells were washed with PBS and resuspended in 100 μL of PBS. The cells were first stained with eFluor 450 viability dye (diluted 1:250 in cold PBS; Invitrogen #65-0863-14) for 5 minutes on ice in the dark followed by incubation in Fc receptor blocking solution for 10 minutes (BioLegend #422302). […] Cells were washed twice and resuspended in FACS buffer and then analyzed by flow cytometry. Data was acquired using SONY SA3800 cytometer (software version 2.0.4.13263) and analyzed using FlowJo.
Bone marrow derived CD34+ cells from two healthy human donors (donor A and donor B) were differentiated into erythroid progenitor cells (erythroblasts) expressing Glycophorin A and CD71. Fourteen-day differentiated cells were then treated with vehicle (veh), different concentrations of compound Example 32, or 20 μM HU for 7 days and cells were analyzed for increase in fetal hemoglobin levels at both mRNA and protein levels. […]

| Structure (SMILES) | fold increase in % F cells [fold] |
| --- | --- |
| NC(=O)NO [HU, hydroxyurea, reference compound] | 1.9 |

Same assay, conditions: Donor B, 20 μM, 7-day treatment, vs vehicle

| Structure (SMILES) | fold increase in % F cells [fold] |
| --- | --- |
| NC(=O)NO [HU, hydroxyurea, reference compound] | 1.3 |

What follows are compounds tested on HBG1 mRNA (assay: HBG1 mRNA levels by RT-qPCR in differentiated CD34+ cells). Conditions: Donor B, 20 μM, 7-day treatment, relative to vehicle.
Assay type: cell-based, human
Text: as §1, §2
(§3) RNA extraction and RT-qPCR analysis. The cell pellets harvested for mRNA analysis were first washed once with PBS and then resuspended in 600 μL of RLT lysis buffer (from the Qiagen kit) supplemented with 1% of beta-mercaptoethanol (Sigma-Aldrich #M6250). […] The extracted RNA was then quantified using a NanoDrop™ 8000 Spectrophotometer (ThermoFisher #ND8000-GL, software version 2.3.2). […]

| Structure (SMILES) | fold increase in HBG1 mRNA levels [fold] |
| --- | --- |
| NC(=O)NO [HU, hydroxyurea, reference compound] | 1.7 |

Each compound was assayed on HBG2 mRNA (assay: HBG2 mRNA levels by RT-qPCR in differentiated CD34+ cells). Conditions: Donor A, 20 μM, 7-day treatment, relative to vehicle.
Assay type: cell-based, human
Text: as §1, §2, §3

| Structure (SMILES) | fold increase in HBG2 mRNA levels [fold] |
| --- | --- |
| NC(=O)NO [HU, hydroxyurea, reference compound] | 2.7 |

Each compound was assayed against purified human, His-tagged PRC2 complex (Homo sapiens (Human), UniProt O75530) (assay: Hot Spot HMT assay, inhibition of PRC2 enzymatic activity). Conditions: 10 nM PRC2 complex, 1 μM 3H-SAM, core histone H3, 10-point dose-response.
Assay type: biochemical
How it was run: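 Five-subunit PRC2 complex (EZH2, EED, SUZ12, AEBP2, RbAp48; 10 nM) preincubated 20 min at 30° C with compound (top 1.0 μM) and 0.05 mg/ml core histone H3 in Tris-HCl, 1% DMSO. Started with 1 μM [3H]SAM, 1 hr at 30° C; tritiated H3 measured by filter binding and scintillation.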

purified human, His-tagged PRC2 complex, sequence (O75530 whole entry): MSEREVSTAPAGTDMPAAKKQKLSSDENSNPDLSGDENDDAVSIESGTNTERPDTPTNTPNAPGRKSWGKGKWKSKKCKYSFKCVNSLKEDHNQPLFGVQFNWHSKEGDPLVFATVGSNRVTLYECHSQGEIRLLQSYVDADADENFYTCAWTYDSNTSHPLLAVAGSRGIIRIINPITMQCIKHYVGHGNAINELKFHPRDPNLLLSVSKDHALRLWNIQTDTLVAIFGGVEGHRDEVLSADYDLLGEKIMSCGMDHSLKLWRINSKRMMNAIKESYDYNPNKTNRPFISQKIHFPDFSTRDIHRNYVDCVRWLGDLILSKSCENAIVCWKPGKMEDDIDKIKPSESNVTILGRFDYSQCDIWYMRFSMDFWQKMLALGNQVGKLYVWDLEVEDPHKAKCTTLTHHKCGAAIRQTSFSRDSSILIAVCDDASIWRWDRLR
purified human, His-tagged PRC2 complex, sequence (Q15910 whole entry partner): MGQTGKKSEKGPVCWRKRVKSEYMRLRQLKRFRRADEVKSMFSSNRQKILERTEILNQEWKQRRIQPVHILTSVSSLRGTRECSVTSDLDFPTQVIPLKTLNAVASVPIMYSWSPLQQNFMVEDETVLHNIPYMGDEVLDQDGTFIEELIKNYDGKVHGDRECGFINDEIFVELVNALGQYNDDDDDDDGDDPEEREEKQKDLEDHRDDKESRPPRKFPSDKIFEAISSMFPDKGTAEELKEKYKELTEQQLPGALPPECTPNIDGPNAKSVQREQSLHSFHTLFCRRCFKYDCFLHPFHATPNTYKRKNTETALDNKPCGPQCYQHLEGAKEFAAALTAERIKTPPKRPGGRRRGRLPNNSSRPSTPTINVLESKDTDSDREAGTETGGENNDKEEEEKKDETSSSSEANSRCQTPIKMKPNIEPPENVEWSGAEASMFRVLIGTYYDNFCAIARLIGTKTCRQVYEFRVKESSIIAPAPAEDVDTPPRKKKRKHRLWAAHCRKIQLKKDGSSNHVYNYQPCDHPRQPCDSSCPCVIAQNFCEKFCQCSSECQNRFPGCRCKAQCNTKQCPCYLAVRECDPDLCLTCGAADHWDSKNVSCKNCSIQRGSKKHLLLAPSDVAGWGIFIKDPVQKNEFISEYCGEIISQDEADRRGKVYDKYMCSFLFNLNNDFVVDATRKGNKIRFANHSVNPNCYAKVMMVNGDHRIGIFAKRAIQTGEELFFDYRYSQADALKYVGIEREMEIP
purified human, His-tagged PRC2 complex, sequence (Q15022 whole entry partner): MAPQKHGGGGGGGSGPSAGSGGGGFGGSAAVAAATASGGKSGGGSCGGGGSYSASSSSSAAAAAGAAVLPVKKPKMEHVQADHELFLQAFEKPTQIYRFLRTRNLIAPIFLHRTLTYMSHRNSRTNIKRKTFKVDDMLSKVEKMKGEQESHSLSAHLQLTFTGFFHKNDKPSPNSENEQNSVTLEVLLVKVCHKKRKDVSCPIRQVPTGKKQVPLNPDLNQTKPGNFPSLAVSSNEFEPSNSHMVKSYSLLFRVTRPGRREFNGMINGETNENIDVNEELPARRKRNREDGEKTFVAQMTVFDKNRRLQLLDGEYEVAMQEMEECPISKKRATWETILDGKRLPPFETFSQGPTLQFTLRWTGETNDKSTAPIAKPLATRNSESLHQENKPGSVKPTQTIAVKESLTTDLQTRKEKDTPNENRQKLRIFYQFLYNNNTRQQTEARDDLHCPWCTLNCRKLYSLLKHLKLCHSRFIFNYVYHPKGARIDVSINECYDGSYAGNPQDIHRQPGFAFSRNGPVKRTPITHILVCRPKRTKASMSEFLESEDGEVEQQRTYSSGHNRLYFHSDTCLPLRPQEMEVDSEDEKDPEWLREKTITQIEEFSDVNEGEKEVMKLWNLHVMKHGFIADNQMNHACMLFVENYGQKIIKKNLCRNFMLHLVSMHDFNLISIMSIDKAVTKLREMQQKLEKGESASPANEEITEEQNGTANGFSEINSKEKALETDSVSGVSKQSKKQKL
purified human, His-tagged PRC2 complex, sequence (Q6ZN18 whole entry partner): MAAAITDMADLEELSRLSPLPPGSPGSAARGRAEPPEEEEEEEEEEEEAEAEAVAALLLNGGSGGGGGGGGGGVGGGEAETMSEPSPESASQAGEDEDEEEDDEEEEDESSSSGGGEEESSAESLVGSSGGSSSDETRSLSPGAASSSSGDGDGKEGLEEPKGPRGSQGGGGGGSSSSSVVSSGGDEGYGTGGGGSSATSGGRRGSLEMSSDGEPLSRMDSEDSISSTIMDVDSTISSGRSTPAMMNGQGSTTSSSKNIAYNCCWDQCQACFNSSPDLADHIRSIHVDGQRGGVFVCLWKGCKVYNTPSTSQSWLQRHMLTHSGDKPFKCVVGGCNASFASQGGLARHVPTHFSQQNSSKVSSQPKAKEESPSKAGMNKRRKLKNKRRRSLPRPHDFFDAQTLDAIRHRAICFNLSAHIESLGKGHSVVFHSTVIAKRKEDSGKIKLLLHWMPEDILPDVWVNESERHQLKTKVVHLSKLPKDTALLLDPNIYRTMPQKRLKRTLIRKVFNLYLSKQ
purified human, His-tagged PRC2 complex, sequence (Q09028 whole entry partner): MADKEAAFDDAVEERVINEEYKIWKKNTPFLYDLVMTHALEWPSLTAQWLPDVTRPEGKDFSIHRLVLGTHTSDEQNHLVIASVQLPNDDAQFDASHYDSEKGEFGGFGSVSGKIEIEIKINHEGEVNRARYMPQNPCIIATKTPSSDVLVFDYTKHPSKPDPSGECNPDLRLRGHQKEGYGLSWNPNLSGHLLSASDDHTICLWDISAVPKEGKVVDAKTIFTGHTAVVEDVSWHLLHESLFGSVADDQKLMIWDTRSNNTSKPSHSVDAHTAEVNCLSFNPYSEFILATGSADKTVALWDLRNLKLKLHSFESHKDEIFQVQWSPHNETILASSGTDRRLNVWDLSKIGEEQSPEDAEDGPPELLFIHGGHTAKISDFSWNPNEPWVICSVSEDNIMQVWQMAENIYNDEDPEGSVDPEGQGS

| Structure (SMILES) | IC50 [nM] |
| --- | --- |
| N#Cc1cn2c(NCc3c(F)ccc4c3CCO4)ncc(-c3ccc([C@@H]4CCCN4)cc3)c2n1 [Example 219, (S)-5-(((5-fluoro-2,3-dihydrobenzofuran-4-yl)methyl)amino)-8-(4-(pyrrolidin-2-yl)phenyl)imidazo[1,2-c]pyrimidine-2-carbonitrile] | < 100 |
| [2H]C1Oc2ccc(F)c(C([2H])([2H])Nc3ncc(-c4ccc(CN(C)C)cc4C)c4nc(C#N)cn34)c2C1[2H] (stereo not shown) [Example 223, 8-(4-((dimethylamino)methyl)-2-methylphenyl)-5-(((5-fluoro-2,3-dihydrobenzofuran-4-yl-2,3-d2)methyl-d2)amino)imidazo[1,2-c]pyrimidine-2-carbonitrile] | < 100 |
| Cn1cc(-c2cnc(NCc3c(F)ccc4c3CCO4)n3cc(C#N)nc23)c(C#N)n1 [Example 224, 8-(3-cyano-1-methyl-1H-pyrazol-4-yl)-5-(((5-fluoro-2,3-dihydrobenzofuran-4-yl)methyl)amino)imidazo[1,2-c]pyrimidine-2-carbonitrile] | 100 to 500 |
| CN1CCOCC1c1ccc(-c2cnc(NCc3c(F)ccc4c3CCO4)n3cc(C#N)nc23)cc1 (stereo not shown) [Example 227, 5-(((5-fluoro-2,3-dihydrobenzofuran-4-yl)methyl)amino)-8-(4-(4-methylmorpholin-3-yl)phenyl)imidazo[1,2-c]pyrimidine-2-carbonitrile] | < 100 |
| CN1CCN(C(=O)c2cc(-c3cnc(NCc4c(F)ccc5c4CCO5)n4cc(C#N)nc34)n(C)n2)CC1 [Example 229, 5-(((5-fluoro-2,3-dihydrobenzofuran-4-yl)methyl)amino)-8-(1-methyl-3-(4-methylpiperazine-1-carbonyl)-1H-pyrazol-5-yl)imidazo[1,2-c]pyrimidine-2-carbonitrile] | < 100 |
| CN(C)CCn1nccc1-c1cnc(NCc2c(F)ccc3c2CCO3)n2cc(C#N)nc12 [Example 230, 8-(1-(2-(dimethylamino)ethyl)-1H-pyrazol-5-yl)-5-(((5-fluoro-2,3-dihydrobenzofuran-4-yl)methyl)amino)imidazo[1,2-c]pyrimidine-2-carbonitrile] | < 100 |
| Cc1c(-c2cnc(NCc3c(F)ccc4c3CCO4)n3cc(C#N)nc23)cnc(CN(C)C)c1F [Example 233, 8-(6-((dimethylamino)methyl)-5-fluoro-4-methylpyridin-3-yl)-5-(((5-fluoro-2,3-dihydrobenzofuran-4-yl)methyl)amino)imidazo[1,2-c]pyrimidine-2-carbonitrile] | < 100 |

The next lines start with the values.

| IC50 [nM] | Structure (SMILES) |
| --- | --- |
| < 100 | N#Cc1cn2c(NCc3c(F)ccc4c3CCO4)ncc(-c3ccc(C(=O)O)nc3)c2n1 [Example 215, 5-(2-cyano-5-(((5-fluoro-2,3-dihydrobenzofuran-4-yl)methyl)amino)imidazo[1,2-c]pyrimidin-8-yl)picolinic Acid] |
| < 100 | CN(C)Cc1ncc(-c2cnc(NCc3c(F)ccc4c3CCO4)n3cc(C#N)nc23)cn1 [Example 216, 8-(2-((dimethylamino)methyl)pyrimidin-5-yl)-5-(((5-fluoro-2,3-dihydrobenzofuran-4-yl)methyl)amino)imidazo[1,2-c]pyrimidine-2-carbonitrile] |
| < 100 | CN(C)CCc1cccc(-c2cnc(NCc3c(F)ccc4c3CCO4)n3cc(C#N)nc23)c1 [Example 217, 8-(3-(2-(dimethylamino)ethyl)phenyl)-5-(((5-fluoro-2,3-dihydrobenzofuran-4-yl)methyl)amino)imidazo[1,2-c]pyrimidine-2-carbonitrile] |
| < 100 | N#Cc1cn2c(NCc3c(F)ccc4c3CCO4)ncc(-c3cc[nH]c(=O)c3)c2n1 [Example 218, 5-(((5-fluoro-2,3-dihydrobenzofuran-4-yl)methyl)amino)-8-(2-oxo-1,2-dihydropyridin-4-yl)imidazo[1,2-c]pyrimidine-2-carbonitrile] |
| 100 to 500 | N#Cc1cn2c(NCc3c(F)ccc4c3CCO4)ncc(-c3ccc([C@H]4CCCN4)cc3)c2n1 [Example 220, (R)-5-(((5-fluoro-2,3-dihydrobenzofuran-4-yl)methyl)amino)-8-(4-(pyrrolidin-2-yl)phenyl)imidazo[1,2-c]pyrimidine-2-carbonitrile] |
| < 100 | CN1CCC1c1ccc(-c2cnc(NCc3c(F)ccc4c3CCO4)n3cc(C#N)nc23)cc1 (stereo not shown) [Example 221, 5-(((5-fluoro-2,3-dihydrobenzofuran-4-yl)methyl)amino)-8-(4-(1-methylazetidin-2-yl)phenyl)imidazo[1,2-c]pyrimidine-2-carbonitrile] |
| < 100 | N#Cc1cn2c(NCc3c(F)ccc4c3CCO4)ncc(-c3ccc(C4CC(=O)N4)cc3)c2n1 (stereo not shown) [Example 222, 5-(((5-fluoro-2,3-dihydrobenzofuran-4-yl)methyl)amino)-8-(4-(4-oxoazetidin-2-yl)phenyl)imidazo[1,2-c]pyrimidine-2-carbonitrile] |
| < 100 | N#Cc1cn2c(NCc3c(F)ccc4c3CCO4)ncc(-c3ccc(C4COCCN4)cc3)c2n1 (stereo not shown) [Example 225, 5-(((5-fluoro-2,3-dihydrobenzofuran-4-yl)methyl)amino)-8-(4-(morpholin-3-yl)phenyl)imidazo[1,2-c]pyrimidine-2-carbonitrile] |
| 100 to 500 | N#Cc1cn2c(NCc3c(F)ccc4c3CCO4)ncc(-c3ccc(C4CCN4)cc3)c2n1 (stereo not shown) [Example 226, 8-(4-(azetidin-2-yl)phenyl)-5-(((5-fluoro-2,3-dihydrobenzofuran-4-yl)methyl)amino)imidazo[1,2-c]pyrimidine-2-carbonitrile] |
| 100 to 500 | N#Cc1cn2c(NCc3c(F)ccc4c3CCO4)ncc(-c3ccnn3CCO)c2n1 [Example 231, 5-(((5-fluoro-2,3-dihydrobenzofuran-4-yl)methyl)amino)-8-(1-(2-hydroxyethyl)-1H-pyrazol-5-yl)imidazo[1,2-c]pyrimidine-2-carbonitrile] |
| 100 to 500 | N#Cc1cn2c(NCc3c(F)ccc4c3CCO4)ncc(-c3n[nH]cc3Br)c2n1 [Example 232, 8-(4-bromo-1H-pyrazol-3-yl)-5-(((5-fluoro-2,3-dihydrobenzofuran-4-yl)methyl)amino)imidazo[1,2c]pyrimidine-2-carbonitrile] |
